In the assay the test system is HIV. As to the kind of experiment: HIV replication in lymphocyte cultures (infected with purified virus, or coculture of AIDS patients' and normal lymphocytes), reverse transcriptase activity in supernatant. The class given is cell-based. The settings on record: DAH treatment 72 h (J0 to J3), RT followed 22 days; dose-dependent; 0,5-2 mM. An excerpt:
Cette inhibition est dose-dépendante. Les essais ont d'abord porté sur des lymphoytes de donneurs sains (Figures 1 et 2). On a pu mettre en évidence cette activité sur deux modèles de réplication du HIV : a) lymphocytes normaux infectés par le virus purifié et b) coculture des lymphocytes des malades du SIDA et de lymphocytes normaux. On a mesuré l'activité transcriptase inverse pendant 22 jours dans le surnageant de cultures cellulaires comme critère de prolifération virale. Le traitement avec le DAH a duré 72 heures de J₀ à J₃ de la manipulation (Figures 3, 4 et 5). […] Par contre, le DAH s'est montré plus toxique vis-à-vis des lymphocytes infectés par le virus du SIDA (Figures 6 et 7).
Effet du traitement par le DAH durant trois jours sur la production de transcriptase inverse virale par une coculture de lymphocytes des malades du SIDA et de lymphocytes normaux.
(●) absence de DAH (témoin) (o) concentration en DAH = 1 mM (□) concentration en DAH = 1,5 mM • . En abscisses : temps de croissance des cultures après inoculation du DAH (en jours) • . En ordonnées : activité transcriptase inverse (en CPM/million de cellules)
Effet du traitement par le DAH durant trois jours, sur la production de transcriptase inverse virale d'une culture de lymphocytes infectés par du virus purifié. […]

Structures are written as SMILES.

In the case of `N[C@@H](CC(=O)NO)C(=O)O` [DAH, D-acide aspartique β-hydroxamate], the “multiplication virale du HIV (activité transcriptase inverse)” value is “inhibe de manière totale”.

The values are drawn from patent EP0470144B1, “BETA-HYDROXAMATE D-ASPARTIC ACID FOR TREATMENT OF VIRAL INFECTIONS AND TUMOURS” (priority 1989, dated 1990).
